Measurements reported in patent US20090143396A1, “Sulfonyl-Substituted Aryl Compounds as Modulators of Peroxisome Proliferator Activated Receptors” (priority 2005, published 2009).

Assays:
Assay type in all cases: cell-based, murine and human
Details in all cases: GAL4 chimeric receptor, 20-24 hours treatment
[1] = biological target: T1, PPAR-alpha (UniProt Q07869); assay: Transient transfection transactivation assay in CV-1 cells, GAL4-PPAR-alpha LBD chimera, luciferase reporter
T1 sequence (Q07869 1-468): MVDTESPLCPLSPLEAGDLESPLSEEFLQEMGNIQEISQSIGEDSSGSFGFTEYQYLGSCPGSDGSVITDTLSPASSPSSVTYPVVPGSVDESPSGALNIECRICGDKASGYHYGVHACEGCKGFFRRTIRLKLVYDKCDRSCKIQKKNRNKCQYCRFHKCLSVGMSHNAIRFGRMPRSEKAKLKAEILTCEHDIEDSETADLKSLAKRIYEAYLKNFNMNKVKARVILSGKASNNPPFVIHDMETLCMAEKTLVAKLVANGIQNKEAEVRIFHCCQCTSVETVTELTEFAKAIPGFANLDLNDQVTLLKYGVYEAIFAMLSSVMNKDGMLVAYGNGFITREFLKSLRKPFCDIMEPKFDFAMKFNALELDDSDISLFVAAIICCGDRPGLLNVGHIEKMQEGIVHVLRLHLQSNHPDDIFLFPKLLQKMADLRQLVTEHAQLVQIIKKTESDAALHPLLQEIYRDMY
Description: (§1) Compounds may be screened for functional potency in transient transfection assays in CV-1 cells for their ability to activate the PPAR subtypes (transactivation assay). A previously established chimeric receptor system was utilized to allow comparison of the relative transcriptional activity of the receptor subtypes on the same synthetic response element and to prevent endogenous receptor activation from complicating the interpretation of results. See, for example, Lehmann, J. M.; Moore, L. B.; Smith-Oliver, T. A; Wilkinson, W. O.; Willson, T. M.; Kliewer, S. A., An antidiabetic thiazolidinedione is a high affinity ligand for peroxisome proliferator-activated receptor […], J. Biol. Chem., 1995, 270, 12953-6. The ligand binding domains for murine and human PPAR-alpha, PPAR-gamma, and PPAR-delta are each fused to the yeast transcription factor GAL4 DNA binding domain. CV-1 cells were transiently transfected with expression vectors for the respective PPAR chimera along with a reporter construct containing four or five copies of the GAL4 DNA binding site driving expression of luciferase. After 8-16 h, the cells are replated into multi-well assay plates and the media is exchanged to phenol-red free DME medium supplemented with 5% delipidated calf serum. 4 hours after replating, cells were treated with either compounds or 1% DMSO for 20-24 hours. Luciferase activity was then assayed with Britelite (Perkin Elmer) following the manufacturer's protocol and measured with either the Perl in Elmer Viewlux or Molecular Devices Acquest (see, for example, Kliewer, S. A., et. al. Cell 1995, 83, 813-819). Rosiglitazone is used as a positive control in the […] assay. Wy-14643 and GW7647 is used as a positive control in the […] assay. GW501516 is used as the positive control in the PPARδ assay.
(§2) Compounds of Examples 1-10 were assayed to measure their biological activity with respect to their EC50 values and efficacy for modulating PPAR-alpha, PPAR-gamma, and PPAR-delta as set forth in Table 1.

[2] = biological target: T2, PPAR-delta (UniProt Q03181); assay: Transient transfection transactivation assay in CV-1 cells, GAL4-PPAR-delta LBD chimera, luciferase reporter
T2 sequence (Q03181 1-441): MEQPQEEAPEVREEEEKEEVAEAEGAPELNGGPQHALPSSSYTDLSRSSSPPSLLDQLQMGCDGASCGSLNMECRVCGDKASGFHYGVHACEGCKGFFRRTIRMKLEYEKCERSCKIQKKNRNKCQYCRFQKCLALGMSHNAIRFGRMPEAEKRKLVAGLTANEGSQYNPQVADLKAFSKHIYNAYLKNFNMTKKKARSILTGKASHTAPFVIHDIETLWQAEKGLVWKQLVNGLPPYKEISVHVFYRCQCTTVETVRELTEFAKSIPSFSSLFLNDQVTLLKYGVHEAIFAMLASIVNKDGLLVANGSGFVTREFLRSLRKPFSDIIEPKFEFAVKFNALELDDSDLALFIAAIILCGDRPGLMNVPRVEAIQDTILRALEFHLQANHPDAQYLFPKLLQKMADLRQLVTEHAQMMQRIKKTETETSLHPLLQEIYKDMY
Description: as §1, §2

[3] = biological target: T3, PPAR-gamma (UniProt P37231); assay: Transient transfection transactivation assay in CV-1 cells, GAL4-PPAR-gamma LBD chimera, luciferase reporter
T3 sequence (P37231 1-505): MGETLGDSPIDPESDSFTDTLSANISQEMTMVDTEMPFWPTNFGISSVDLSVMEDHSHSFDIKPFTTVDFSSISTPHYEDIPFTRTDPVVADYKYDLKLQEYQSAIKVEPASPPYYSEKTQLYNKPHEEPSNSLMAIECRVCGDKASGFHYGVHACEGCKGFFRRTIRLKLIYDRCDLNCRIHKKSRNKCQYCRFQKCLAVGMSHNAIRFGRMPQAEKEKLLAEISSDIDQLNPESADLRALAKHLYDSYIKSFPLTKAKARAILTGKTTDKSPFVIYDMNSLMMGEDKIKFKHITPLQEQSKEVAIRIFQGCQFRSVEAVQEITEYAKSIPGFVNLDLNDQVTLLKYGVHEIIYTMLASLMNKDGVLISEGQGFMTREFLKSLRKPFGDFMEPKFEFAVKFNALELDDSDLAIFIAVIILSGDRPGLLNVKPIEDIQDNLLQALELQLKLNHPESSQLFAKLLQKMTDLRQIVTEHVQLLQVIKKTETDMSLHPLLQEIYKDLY
Description: as §1, §2

Row | EC50 [1] [µM] | EC50 [2] [µM] | EC50 [3] [µM] | SMILES
1 | 5 to 100 | < 5 | < 5 | C[C@@H]1CN(Cc2ccc(OC(F)(F)F)cc2)C[C@H](C)N1S(=O)(=O)c1cccc(CC(=O)O)c1 [Example 6, {3-[2,6-Dimethyl-4-(4-trifluoromethoxy-benzyl)-piperazine-1-sulfonyl]-phenyl}-acetic acid]
2 | < 5 | < 5 | > 100 | Cc1ccc(S(=O)(=O)N2[C@H](C)CN(Cc3ccc(Cl)c(Cl)c3)C[C@@H]2C)cc1CC(=O)O [Example 7, {5-[4-(3,4-Dichloro-benzyl)-2,6-dimethyl-piperazine-1-sulfonyl]-2-methyl-phenyl}-acetic acid]
3 | < 5 | < 5 | < 5 | C#Cc1cc(CC(=O)O)cc(S(=O)(=O)N2CCN(Cc3ccc(OC(F)(F)F)cc3)CC2)c1 [Example 8, 2-{3-Ethynyl-5-[-4-(4-trifluoromethoxybenzyl)piperazine-1-ylsulfonyl]phenyl}acetic acid]
4 | < 5 | < 5 | < 5 | C#Cc1cc(CC(=O)O)cc(S(=O)(=O)N2CCN(Cc3cccc(OC(F)(F)F)c3)CC2)c1 [Example 9, 2-{3-Ethynyl-5-[4-(3-trifluoromethoxybenzyl)piperazine-1-ylsulfonyl]phenyl}acetic acid]
5 | > 100 | < 5 | > 100 | Cc1ccc(S(=O)(=O)N2[C@H](C)CN(C(=O)Cc3ccc(OC(F)(F)F)cc3)C[C@@H]2C)cc1CC(=O)O [Example 10, 2-(5-((2R,6S)-2,6-dimethyl-4-(2-(4-(trifluoromethoxy)phenyl)acetyl)piperazin-1-ylsulfonyl)-2-methylphenyl)acetic acid]

Second part, the compound before the results:

Row | SMILES | EC50 [1] [µM] | EC50 [2] [µM] | EC50 [3] [µM]
6 | Cc1ccc(S(=O)(=O)N2[C@H](C)CN(Cc3ccc(OC(F)(F)F)cc3)C[C@@H]2C)cc1CC(=O)O [Example 1, {5-[2,6-Dimethyl-4-(4-trifluoromethoxy-benzyl)-piperazine-1-sulfonyl]-2-methyl-phenyl}-acetic acid] | < 5 | < 5 | > 100
7 | Cc1ccc(S(=O)(=O)N2[C@H](C)CN(Cc3ccc(C(F)(F)F)cc3)C[C@@H]2C)cc1CC(=O)O [Example 2, {5-[2,6-Dimethyl-4-(4-trifluoromethyl-benzyl)-piperazine-1-sulfonyl]-2-methyl-phenyl}-acetic acid] | < 5 | < 5 | 5 to 100
8 | Cc1ccc(S(=O)(=O)N2CCN(Cc3ccc(OC(F)(F)F)cc3)CC2)cc1CC(=O)O [Example 3, {2-Methyl-5-[4-(4-trifluoromethoxy-benzyl)-piperazine-1-sulfonyl]-phenyl}-acetic acid] | < 5 | < 5 | < 5
9 | Cc1ccc(S(=O)(=O)N2CCN(Cc3ccc(C(F)(F)F)cc3)CC2)cc1CC(=O)O [Example 4, {2-Methyl-5-[4-(4-trifluoromethyl-benzyl)-piperazine-1-sulfonyl]-phenyl}-acetic acid] | < 5 | < 5 | < 5
10 | Cc1cc(CC(=O)O)cc(S(=O)(=O)N2[C@H](C)CN(Cc3ccc(OC(F)(F)F)cc3)C[C@@H]2C)c1 [Example 5, {3-[2,6-Dimethyl-4-(4-trifluoromethoxy-benzyl)-piperazine-1-sulfonyl]-5-methyl-phenyl}-acetic acid] | 5 to 100 | < 5 | > 100
